Source: patent publication US20250122502A1, “Bifunctional Molecules and Methods of Using Thereof” (FLAGSHIP PIONEERING, INC., priority 2021, published 2025)

Test system: MYC expression in HEK293T cells
Test: MYC expression by qPCR after RNAiMax transfection
Format: cell-based, human
Settings: 100 nM, 24 hours
Method: HEK293T cells were seeded at 30 k cells/well in a 96 well tissue culture vessel day before transfection. The next day cells were transfected with 400, 200, 100, 50 nM of PVT1 ASO1-JQ1 with Lipofectamine RNAiMax (ThermoFisher Cat #13778150). […] Transfected cells were allowed to recover and were harvested after 24 hours. MYC expression was measured by RNA level using qPCR analysis after transfection with each of the bi-functional molecule or control molecules. Cell samples for qPCR analysis were prepared by Cells to Ct 1 Step TaqMan Kit (ThermoFisher A25602) following manufacturer's recommendations. qPCR assays were performed using Cells to Ct qPCR master mix, gene specific TaqMan probe (ThermoFisher), and Cells to Ct cell lysate. Relative levels of MYC were normalized to β-actin as a stably expressed control. MYC TaqMan probe: […] ACTB TaqMan probe: […] During qPCR amplification, FAM fluorescence intensity for each target gene was recorded by QuantStudio7 qPCR instrument (ThermoFisher Scientific) as a measurement of the amount of double-stranded DNA produced during each PCR cycle. Ct values for each gene in each sample were computed by the instrument software based on the amplification curves, and used to determine relative expression values for target and β-actin in each sample.

Substance | MYC expression change (in words)
PVT1-Scr4: partially scrambled PVT1 ASO1 (SEQ ID NO: 66) conjugated to JQ1 (antisense GTAAGTGGAATTCCATTGG; listed as DNA, chemistry not fully specified) | less impact
PVT1-Scr1: partially scrambled PVT1 ASO1 (SEQ ID NO: 63) conjugated to JQ1 (antisense TGAAGTGGAATTCCAGTTG; listed as DNA, chemistry not fully specified) | less impact
